PubChem BioAssay (NCI)
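In this assay, cells in 96-well plates receive the compound at five concentrations for 48 hours. Endpoints are linearly interpolated between the surrounding concentrations. TGI denotes the concentration required for complete inhibition of growth.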

What was measured:
Experiment in all cases: DTP human tumour cell line panel, 48 h
[1] = tested on: A549 NSCLC
[2] = tested on: MALME-3M melanoma
[3] = tested on: HCT-15 colon
[4] = tested on: HCC-2998 colon
[5] = tested on: SNB-19 CNS
[6] = tested on: TK-10 renal
[7] = tested on: HT29 colon
[8] = tested on: RPMI-8226 leukemia
[9] = tested on: SF-268 CNS
[10] = tested on: OVCAR-3 ovarian
[11] = tested on: CCRF-CEM leukemia
[12] = tested on: UACC-62 melanoma

| SMILES | TGI [1] | TGI [2] | TGI [3] | TGI [4] | TGI [5] | TGI [6] | TGI [7] | TGI [8] | TGI [9] | TGI [10] | TGI [11] | TGI [12] |
| --- | --- | --- | --- | --- | --- | --- | --- | --- | --- | --- | --- | --- |
| CC(=O)c1c2c(cc3c1CC1(Cc4cc5c(cc4C1)CCC5)C3)CCC2 | > 100 µM | > 100 µM | > 100 µM | > 100 µM | > 100 µM | > 100 µM | > 100 µM | > 100 µM | > 100 µM | > 100 µM | > 100 µM | – |
| COc1c(O)cc(/C=C/c2cc(O)cc3c2[C@@]2(C(=O)O3)c3c(O)cc(O)cc3OC2c2cccc(O)c2)cc1O (some centres undefined) | > 100 µM | > 100 µM | > 100 µM | – | > 100 µM | > 100 µM | 81.8 µM | 52.8 µM | > 100 µM | > 100 µM | > 100 µM | 72 µM |
| N[C@@H]1C[C@H](N)c2c(Cl)sc(Cl)c21 | > 100 µM | – | > 100 µM | > 100 µM | > 100 µM | – | – | > 100 µM | – | > 100 µM | > 100 µM | > 100 µM |
| N#Cc1c(-c2ccccc2)c(C#N)c(=O)n(NS(=O)(=O)c2ccccc2)c1O | > 100 µM | > 100 µM | > 100 µM | > 100 µM | > 100 µM | > 100 µM | > 100 µM | > 100 µM | > 100 µM | – | > 100 µM | > 100 µM |
| CN(C(=O)C1=CCCCCC1)c1ccccc1I | > 100 µM | – | > 100 µM | > 100 µM | > 100 µM | – | – | > 100 µM | 95.9 µM | > 100 µM | > 100 µM | > 100 µM |
| CC(=O)Nc1ccc(-c2nnc(SCC(=O)Nc3ccccc3Cl)o2)cc1 | > 100 µM | > 100 µM | > 100 µM | > 100 µM | > 100 µM | > 100 µM | > 100 µM | – | > 100 µM | > 100 µM | > 100 µM | – |
| CN(C)c1ccc(C(C#N)N2CCCN(C(C#N)c3ccc(N(C)C)cc3)C2c2ccc(N(C)C)cc2)cc1 (centres undefined) | > 100 µM | > 100 µM | > 100 µM | – | > 100 µM | > 100 µM | > 100 µM | > 100 µM | > 100 µM | > 100 µM | > 100 µM | > 100 µM |
| O=C(Nc1ccccc1)N1CCNC1=S | > 100 µM | > 100 µM | > 100 µM | 85.8 µM | – | – | > 100 µM | > 100 µM | > 100 µM | > 100 µM | > 100 µM | > 100 µM |
| CCOP(=O)(CS(C)=O)O[C@@H]1C[C@H](C)CC[C@H]1C(C)C (some centres undefined) | 17.7 µM | 26.8 µM | 7.81 µM | – | 25.7 µM | 16.3 µM | > 34.1 µM | 5.3 µM | 21.3 µM | 15.7 µM | 11.5 µM | 7.08 µM |
| CCOC(=O)CNC(=O)C(CSC(=O)N(O)c1ccc(Br)cc1)NC(=O)CCC(N)C(=O)OCC (centres undefined) | > 50 µM | > 50 µM | > 50 µM | > 50 µM | > 50 µM | – | > 50 µM | > 50 µM | > 50 µM | > 50 µM | > 50 µM | > 50 µM |
| CC(C#N)Nc1ccc(Oc2ccc(C(C)(C)c3ccc(Oc4ccc(NC(C)C#N)cc4)cc3)cc2)cc1 (centres undefined) | > 100 µM | > 100 µM | > 100 µM | > 100 µM | > 100 µM | > 100 µM | > 100 µM | – | > 100 µM | > 100 µM | – | > 100 µM |
| COc1ccc(NC=O)c(C(O)CCNC(C)=O)c1 (centres undefined) | > 100 µM | – | > 100 µM | – | > 100 µM | > 100 µM | > 100 µM | > 100 µM | > 100 µM | > 100 µM | > 100 µM | > 100 µM |
| CC(C)=CCC/C(C)=C/Cc1cc(/C=C/c2cc(O)c(CC=C(C)C)c(O)c2)cc(O)c1O | 17.5 µM | 18.6 µM | 11.9 µM | 5.86 µM | 16.6 µM | 14.2 µM | 13.6 µM | 3.68 µM | 12.3 µM | 5.83 µM | – | 9.88 µM |
| CCOC(=O)[C@H]1C[C@@H](C(=O)c2ccccc2)N2N=C(c3ccc(Br)cc3)C=C[C@H]12 | > 100 µM | – | > 100 µM | > 100 µM | > 100 µM | > 100 µM | – | > 100 µM | > 100 µM | > 100 µM | – | > 100 µM |
| Cc1ccc2c(ccc3c[n+]4ccccc4c(C)c32)c1 | 40.9 µM | 2.98 µM | > 100 µM | 17.9 µM | 12.8 µM | 89.9 µM | 25.9 µM | 67.2 µM | 6.64 µM | 4.02 µM | > 100 µM | – |
| C1CSCC2(COC2)CS1 | > 100 µM | – | – | > 100 µM | > 100 µM | > 100 µM | > 100 µM | – | > 100 µM | – | > 100 µM | – |
| Cc1ccc(-c2c(C#N)c(-c3ccc(N(C)C)cc3)c(C#N)c(=O)n2NS(=O)(=O)c2ccccc2)cc1 | > 100 µM | > 100 µM | > 100 µM | > 100 µM | > 100 µM | > 100 µM | > 100 µM | 33.2 µM | > 100 µM | – | 96.3 µM | > 100 µM |
| N#C/C(=C\c1ccc(Cl)cc1)c1nc2ccccc2c(=O)[nH]1 | > 100 µM | > 100 µM | > 100 µM | > 100 µM | > 100 µM | > 100 µM | > 100 µM | > 100 µM | > 100 µM | – | > 100 µM | > 100 µM |
| O=c1cc(-c2ccc(O)c(O)c2)oc2cc(OC3OC(CO)C(O)C(O)C3O)cc(O)c12 (centres undefined) | > 100 µM | > 100 µM | > 100 µM | > 100 µM | > 100 µM | > 100 µM | > 100 µM | > 100 µM | > 100 µM | > 100 µM | – | > 100 µM |
| NC(=S)N/N=C/c1cc(CN2CCOCC2)c(N)cn1 | – | > 100 µM | > 100 µM | – | > 100 µM | > 100 µM | > 100 µM | > 100 µM | > 100 µM | > 100 µM | > 100 µM | > 100 µM |
